# Assay results reported in ChEMBL document CHEMBL1201862, “PubChem BioAssay data set” (2004).
#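 All cell lines were grown in 96-well plates and treated with compound for 48 hours. GI50 = concentration required for 50% inhibition of growth.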 Activity calls are given as the source filed them. Rule as the data show it: active = GI50 up to about 1.1 µM and inactive = higher.
# Legend:
# Assay in all cases: NCI-60 cell line screen, 48 h
# COLO 205 = tested on: COLO 205
# DLD-1 = tested on: DLD-1
# DMS-273 = tested on: DMS-273
# HCC 2998 = tested on: HCC 2998
# NCI-H460 = tested on: NCI-H460
# OVCAR-5 = tested on: OVCAR-5
# OVCAR-8 = tested on: OVCAR-8
# SF-295 = tested on: SF-295
# SK-MEL-2 = tested on: SK-MEL-2
# SNB-78 = tested on: SNB-78
# SW-620 = tested on: SW-620
# XF498 = tested on: XF498
# DU-145 = tested on: DU-145
# Hs-578T = tested on: Hs-578T
# M14 = tested on: M14
# MDA-MB-435 = tested on: MDA-MB-435
# MDA-N = tested on: MDA-N
# PC-3 = tested on: PC-3
# SR = tested on: SR
# MDA-MB-231 = tested on: MDA-MB-231
Structure (SMILES),GI50 (COLO 205),GI50 (DLD-1),GI50 (DMS-273),GI50 (HCC 2998),GI50 (NCI-H460),GI50 (OVCAR-5),GI50 (OVCAR-8),GI50 (SF-295),GI50 (SK-MEL-2),GI50 (SNB-78),GI50 (SW-620),GI50 (XF498),GI50 (DU-145),GI50 (Hs-578T),GI50 (M14),GI50 (MDA-MB-435),GI50 (MDA-N),GI50 (PC-3),GI50 (SR),GI50 (MDA-MB-231)
O=NN(CCCl)C(=O)Nc1ccc(Cl)c(Cl)c1,> 100 µM (inactive),53.5 µM (inactive),72.8 µM (inactive),> 60.7 µM (inactive),56.8 µM (inactive),> 67.9 µM (inactive),71.6 µM (inactive),48.5 µM (inactive),> 82.2 µM (inactive),> 56.9 µM (inactive),> 100 µM (inactive),72.8 µM (inactive),,,,,,,,
CC(=O)Nc1ccc2oc(=O)c3ccccc3c2c1,> 100 µM (inactive),,,> 100 µM (inactive),> 100 µM (inactive),> 100 µM (inactive),> 100 µM (inactive),> 100 µM (inactive),> 100 µM (inactive),,> 100 µM (inactive),,> 100 µM (inactive),> 100 µM (inactive),> 100 µM (inactive),> 100 µM (inactive),> 100 µM (inactive),> 100 µM (inactive),> 100 µM (inactive),
CC(C)[C@](O)(C(=O)OCC1CC[N+]2([O-])CC[C@@H](O)C12)[C@H](C)O (some centres undefined),> 375 µM (inactive),> 375 µM (inactive),> 375 µM (inactive),> 277 µM (inactive),> 122 µM (inactive),> 375 µM (inactive),> 375 µM (inactive),> 375 µM (inactive),62.2 µM (inactive),> 375 µM (inactive),> 375 µM (inactive),> 375 µM (inactive),,,,,,,,
CCOC(=O)CN1CCS/C1=N/C#N,> 100 µM (inactive),> 100 µM (inactive),> 100 µM (inactive),> 100 µM (inactive),> 31.6 µM (inactive),4.22 µM (inactive),> 100 µM (inactive),,> 100 µM (inactive),> 100 µM (inactive),> 100 µM (inactive),> 100 µM (inactive),,,,,,,,
Cc1cn(C2CC(O)C(Cn3cc(Cn4nc(Br)c(=O)[nH]c4=O)nn3)O2)c(=O)[nH]c1=O (centres undefined),> 100 µM (inactive),,,> 100 µM (inactive),,> 100 µM (inactive),> 100 µM (inactive),> 100 µM (inactive),> 100 µM (inactive),,> 100 µM (inactive),,> 100 µM (inactive),> 100 µM (inactive),> 100 µM (inactive),> 100 µM (inactive),> 100 µM (inactive),> 100 µM (inactive),,> 100 µM (inactive)
C[N+](C)(CCO)CCN1c2ccccc2Sc2ccccc21,> 10 µM (inactive),,,> 10 µM (inactive),> 10 µM (inactive),> 10 µM (inactive),> 10 µM (inactive),> 10 µM (inactive),> 10 µM (inactive),,> 10 µM (inactive),,> 10 µM (inactive),> 10 µM (inactive),> 10 µM (inactive),> 10 µM (inactive),> 10 µM (inactive),> 10 µM (inactive),> 10 µM (inactive),> 10 µM (inactive)
COc1ccc2c(c1)c1c(n2CCN2CCCCC2)-c2cccc(OC)c2CC1,16.7 µM (inactive),,,15.5 µM (inactive),19.9 µM (inactive),16.1 µM (inactive),16.9 µM (inactive),30.5 µM (inactive),17.4 µM (inactive),,16.7 µM (inactive),,32 µM (inactive),19.5 µM (inactive),12 µM (inactive),14.7 µM (inactive),16.2 µM (inactive),12.7 µM (inactive),4.9 µM (inactive),15.6 µM (inactive)
COC1CCC(CO)OO1 (centres undefined),53.6 µM (inactive),,,,24.7 µM (inactive),25.9 µM (inactive),,14.1 µM (inactive),47.9 µM (inactive),15.9 µM (inactive),,,,,47.9 µM (inactive),,,,24.3 µM (inactive),
CC(=O)NC(CCCCNC(=O)OC(C)(C)C)C(=O)O (centres undefined),> 100 µM (inactive),,,> 100 µM (inactive),> 100 µM (inactive),38.1 µM (inactive),> 100 µM (inactive),> 100 µM (inactive),,,> 100 µM (inactive),,> 100 µM (inactive),,> 100 µM (inactive),> 100 µM (inactive),> 100 µM (inactive),> 100 µM (inactive),,> 100 µM (inactive)
O=C1OC2CC=CC1C2 (centres undefined),> 100 µM (inactive),> 100 µM (inactive),> 100 µM (inactive),> 100 µM (inactive),> 100 µM (inactive),> 100 µM (inactive),> 100 µM (inactive),> 100 µM (inactive),> 100 µM (inactive),> 100 µM (inactive),> 100 µM (inactive),> 100 µM (inactive),,,,,,,,
CC[C@]12C=CCN3CC[C@@]4(c5ccc(OC)cc5N(C)[C@H]4[C@@](O)(C(=O)OC)[C@@H]1OC(C)=O)[C@@H]32,> 185 µM (inactive),> 200 µM (inactive),> 140 µM (inactive),> 200 µM (inactive),177 µM (inactive),> 200 µM (inactive),19.5 µM (inactive),152 µM (inactive),182 µM (inactive),195 µM (inactive),> 200 µM (inactive),> 172 µM (inactive),,,,,,,,
COc1ccc(C[C@H](N)C(=O)N2C[C@@H](CO)C[C@@H](n3cnc4c(N(C)C)ncnc43)C2)cc1,,> 100 µM (inactive),> 100 µM (inactive),,> 100 µM (inactive),> 100 µM (inactive),> 100 µM (inactive),> 100 µM (inactive),> 100 µM (inactive),> 100 µM (inactive),> 100 µM (inactive),,,,> 100 µM (inactive),,,,> 100 µM (inactive),
CSC1=C(SC)C(=O)c2cn(C)c(=O)cc2C1=O,1.49 µM (inactive),,,17.1 µM (inactive),9.38 µM (inactive),20.2 µM (inactive),> 44.1 µM (inactive),13 µM (inactive),5.06 µM (inactive),,1.74 µM (inactive),,8.47 µM (inactive),7.67 µM (inactive),1.73 µM (inactive),1.79 µM (inactive),1.64 µM (inactive),9.55 µM (inactive),< 0.0332 µM (active),1.87 µM (inactive)
COc1ccc(NC(=S)NNC(=O)c2nsc3ccccc23)cc1,43.9 µM (inactive),,26.1 µM (inactive),68.2 µM (inactive),33.5 µM (inactive),> 100 µM (inactive),43.7 µM (inactive),,25.1 µM (inactive),41.7 µM (inactive),48.4 µM (inactive),,,,17.8 µM (inactive),,,,31 µM (inactive),
CC1=CC(O)C(O)C2(C)C1CC1OC(=O)C(O)C3C(C)C(O)C4(O)OCC13C42 (centres undefined),20.1 µM (inactive),135 µM (inactive),153 µM (inactive),16.8 µM (inactive),7.82 µM (inactive),161 µM (inactive),32.1 µM (inactive),28.8 µM (inactive),59.2 µM (inactive),39.4 µM (inactive),24.7 µM (inactive),53.1 µM (inactive),,,,,,,,
CC(C)(C)[Si](C)(C)OCCCC#CCO,> 100 µM (inactive),> 100 µM (inactive),> 100 µM (inactive),> 100 µM (inactive),> 100 µM (inactive),> 100 µM (inactive),> 100 µM (inactive),> 100 µM (inactive),> 100 µM (inactive),> 100 µM (inactive),> 100 µM (inactive),> 100 µM (inactive),,,> 100 µM (inactive),,,,,
CSCCC(NOC(=O)Cc1ccccc1)P(=O)(O)c1ccccc1 (centres undefined),> 100 µM (inactive),,,> 100 µM (inactive),> 100 µM (inactive),> 100 µM (inactive),> 100 µM (inactive),> 100 µM (inactive),> 100 µM (inactive),,> 100 µM (inactive),,> 100 µM (inactive),> 100 µM (inactive),> 100 µM (inactive),> 100 µM (inactive),> 100 µM (inactive),> 100 µM (inactive),> 100 µM (inactive),> 100 µM (inactive)
Nc1ncnc2c1nnn2C1OC(CO)C(O)C1O (centres undefined),3.05 µM (inactive),1.36 µM (inactive),2.62 µM (inactive),1.83 µM (inactive),2.13 µM (inactive),4.37 µM (inactive),2.87 µM (inactive),30.1 µM (inactive),1.3 µM (inactive),37.6 µM (inactive),2.19 µM (inactive),6.98 µM (inactive),,,,,,,,
CCNC(=O)C(C)C1CCC2(C)C=CC(=O)C(C)=C2C1O (centres undefined),> 100 µM (inactive),> 100 µM (inactive),> 77.4 µM (inactive),> 100 µM (inactive),> 100 µM (inactive),> 100 µM (inactive),> 100 µM (inactive),> 93.5 µM (inactive),> 100 µM (inactive),> 100 µM (inactive),> 100 µM (inactive),> 100 µM (inactive),,,,,,,,
